According to patent EP1370276B1, “INTERCELLULAR COMMUNICATION FACILITATING COMPOUNDS AND THEIR MEDICAL USE” (Zealand Pharma A/S, priority 2001, dated 2002):
Where a SMILES comes first, the peptide text is derived from it. [ ]: non-standard residue; d: D form. The star is where a group is joined. Dnp = O=[N+]([O-])c1ccc(*)c([N+](=O)[O-])c1; Hyp = O=C(O)[C@@H]1C[C@@H](O)CN1; Sar = CNCC(=O)O

Test system: calcium-induced arrythmias
Test: Calcium-induced arrhythmia model in mice (time to 2nd degree AV-block)
Type: in vivo
Design: CaCl2 mice Score: scale not given here
Settings: for CaCl2 mice Score / CaCl2 mice In vivo, %: calcium chloride induced arrythmia model; for CaCl2 mice Score: no key for the score
Protocol: The antiarrhythmic effects of compounds of this invention were tested in an in vivo model of calcium-induced arrythmias according to the model of Lynch et al. ^[37]. […]. Commercial solutions of hypnorm and midazolam were diluted 1:1 in distilled water and one part diluted Hypnorm® is mixed with one part diluted midazolam.
The anaesthesia was induced by s.c. administration in a dose of […]. An i.v. cannula was inserted into the tail vein. The lead II ECG signal was recorded continuously by positioning of a stainless steel ECG electrodes on the right forelimb and on the left hind limb. The ground electrode was placed on the right hind limb. The signal was amplified (x 5.000-10.000) and filtered (0.1-150 Hz) via a Hugo Sachs Electronic model 689 ECG module. The analogue signal was digitised via a 12 bit data acquisition board (Data Translation model DT321) and sampled at 1000 Hz using the Notocord HEM 3.1 software for Windows NT. After a 10-min equilibration period, the test sample of drug was injected into the tail vein. Mice pre-treated with vehicle were tested as a measure of the control level in untreated animals. The injection volume was 100 µl in all experiments. Infusion of CaCl2 (30 mg/ml, 0.1 ml/min ≈ 100 mg/kg/min (calciumchlorid-2-hydrat, Riedel-de Haën, Germany)) was started 3 min after i.v. administration of drug or vehicle. The time lag to onset of 2nd degree AV-block was determined as the time from the start of CaCl2 infusion until the first arrhythmic event occured. An event of 2nd degree AV-block was defined as intermittent failure of the AV conduction characterised by a P-wave without the concomitant QRS complex.
Responses were expressed relative to the time until 2nd degree AV-block occurred in vehicle treated mice.

Molecule: 3-(4-hyd roxyphenyl)propionyl-Pro-Hyp-Gly-Ala-Gly-OH [HP5, reference compound]
- CaCl2 mice Score: 2
- In vivo activity (maximal effect, increase in time until 2nd degree AV-block relative to vehicle, i.v.): ++ (++ refers to 30-50% increase in time until arrhythmia)

Molecule: CC(=O)NCC(=O)N[C@@H](CC(=O)O)C(=O)N[C@@H](CC(N)=O)C(=O)N[C@@H](Cc1ccc(O)cc1)C(N)=O [Ac-G-D-N-Y-NH2] (Ac-GDNY-NH2)
- CaCl2 mice Score: 1

Molecule: CC(=O)N[C@@H](Cc1ccc(O)cc1)C(=O)N[C@@H](CC(=O)O)C(=O)N[C@@H](CC(N)=O)C(=O)NCC(N)=O [Ac-Y-D-N-G-NH2] (Ac-YDNG-NH2)
- CaCl2 mice Score: 1

Molecule: CC(=O)N[C@@H](Cc1ccc(O)cc1)C(=O)N[C@H](CC(N)=O)C(=O)NCC(=O)O [Ac-Y-DN-G-OH] (Ac-Tyr-[dN]-Gly-OH)
- CaCl2 mice Score: 2

Molecule: CC(=O)N[C@@H](Cc1ccc(O)cc1)C(=O)N1CCC[C@H]1C(=O)N1C[C@H](O)C[C@H]1C(=O)NCC(=O)N[C@@H](C)C(=O)NCC(=O)O [Compound 1, Ac-Tyr-Pro-4Hyp-Gly-Ala-Gly-OH] (Ac-YP[Hyp]GAG-OH)
- CaCl2 mice Score: 1

Molecule: C[C@H](NC(=O)CN)C(=O)NCC(=O)N1C[C@H](O)C[C@H]1C(=O)N1CCC[C@H]1C(=O)N[C@@H](Cc1ccc(O)cc1)C(=O)N[C@@H](CC(N)=O)C(N)=O [H-AAP-10-Asn-NH2] (H-GAG[Hyp]PYN-NH2)
- CaCl2 mice Score: 2

Molecule: NCC(=O)N[C@H](CC(N)=O)C(=O)N[C@@H](Cc1ccc(O)cc1)C(N)=O [H-G-DN-Y-NH2] (H-Gly-[dN]-Tyr-NH2)
- CaCl2 mice Score: 2

Molecule: C[C@H](NC(=O)CN)C(=O)N(C)CC(=O)N1C[C@H](O)C[C@H]1C(=O)N1CCC[C@H]1C(=O)N[C@@H](Cc1ccc(O)cc1)C(N)=O [H-GA-Sar-Hyp-PY-NH2] (H-GA[Sar][Hyp]PY-NH2)
- CaCl2 mice In vivo, %: 46 +/- 11%
- CaCl2 mice Score: 2

Molecule: C[C@H](NC(=O)CN)C(=O)N[C@@H](CC(N)=O)C(=O)N[C@@H](Cc1ccc(O)cc1)C(N)=O [H-GANY-NH2] (H-GANY-NH2)
- CaCl2 mice Score: 1

Molecule: NCC(=O)NCC(=O)N[C@@H](Cc1ccc(O)cc1)C(N)=O [H-GGY-NH2] (H-Gly-Gly-Tyr-NH2)
- CaCl2 mice Score: 2

Molecule: NCC(=O)N[C@@H](CCCCNc1ccc([N+](=O)[O-])cc1[N+](=O)[O-])C(=O)N[C@@H](Cc1ccc(O)cc1)C(N)=O [H-GK(DNP)Y-NH2] (H-Gly-Lys(Dnp)-Tyr-NH2)
- CaCl2 mice Score: 1

Molecule: C[C@H](NC(=O)CNC(=O)[C@H](CC(N)=O)NC(=O)[C@H](Cc1ccc(O)cc1)NC(=O)[C@@H]1CCCN1C(=O)[C@@H]1C[C@@H](O)CN1)C(=O)NCC(N)=O [H-HypPYNGAG-NH2] (H-[Hyp]PYNGAG-NH2)
- CaCl2 mice In vivo, %: 34 +/- 10%
- CaCl2 mice Score: 2

Molecule: CNCC(=O)N[C@@H](C)C(=O)N(C)CC(=O)N1C[C@H](O)C[C@H]1C(=O)N1CCC[C@H]1C(=O)N[C@@H](Cc1ccc(O)cc1)C(N)=O [H-Sar-A-Sar-Hyp-PY-NH2] (H-[Sar]A[Sar][Hyp]PY-NH2)
- CaCl2 mice In vivo, %: 24 +/- 7%
- CaCl2 mice Score: 1

Molecule: NC(=O)C[C@@H](NC(=O)[C@@H](N)Cc1ccc(O)cc1)C(=O)NCC(=O)O [H-Y-DN-G-OH] (H-Tyr-[dN]-Gly-OH)
- CaCl2 mice Score: 2

Molecule: NC(=O)CNC(=O)[C@H](CC(N)=O)NC(=O)[C@@H](N)Cc1ccc(O)cc1 [H-YNG-NH2] (H-Tyr-Asn-Gly-NH2)
- CaCl2 mice Score: 2

Molecule: C[C@H](NC(=O)CN)C(=O)NCC(=O)N1CCC[C@@H]1C(=O)N[C@@H](C)C(=O)N[C@@H](Cc1ccc(O)cc1)C(N)=O [H-[D-Pro^4, Ala^5]AAP-10-NH2] (H-GAG[dP]AY-NH2)
- CaCl2 mice In vivo, %: 29 +/- 12%
- CaCl2 mice Score: 1

Molecule: AcGNY
- CaCl2 mice In vivo, %: 46 +/- 9%
- CaCl2 mice Score: 2

Molecule: CF3C(O)-AAP10-NH2
- CaCl2 mice Score: 3

Molecule: Cyclo(retro-AAP-10-Asn)
- CaCl2 mice In vivo, %: 59 +/- 9%
- CaCl2 mice Score: 2

Molecule: GNY
- CaCl2 mice In vivo, %: 58 +/- 10%
- CaCl2 mice Score: 2

Molecule: H-AAP-10-K6-OH
- CaCl2 mice In vivo, %: 64 +/- 10%
- CaCl2 mice Score: 3

Molecule: H-DY-DN-G-NH2
- CaCl2 mice Score: 1

Molecule: H-GAG-DHyp-DProY-NH2
- CaCl2 mice In vivo, %: 49 +/- 6%
- CaCl2 mice Score: 2
